Type in all cases: biochemical
Assay [1] has as its target T1, CLK2 (Homo sapiens, UniProt P49760).
T1 construct: GST-fusion or His-tag (not specified per kinase); purchased ProQinase GmbH; host or cells: Sf9 insect cells or E. coli (not specified per kinase)
Put plainly: Radiometric protein kinase assay (33PanQinase Activity Assay), CLK2. To be noted: read-out: IC50 on CLK2 (most potent CLK2 inhibitors). Summed up: (§1)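 Recombinant human kinases (GST- or His-tagged, full-length or active fragments, from Sf9 or E. coli) were run in the radiometric 33PanQinase assay with [γ-33P]-ATP. Compounds were tested at 10 concentrations from 10 μM to 30 nM in 1% DMSO, incubated 60 min at 30 °C, and IC50 derived from dose-response curves.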

For assay [2], the target named is T2, DYRK1B (Homo sapiens, UniProt Q9Y463).
T2 construct: GST-fusion or His-tag (not specified per kinase); purchased ProQinase GmbH; host or cells: Sf9 insect cells or E. coli (not specified per kinase)
T2 sequence (Q9Y463 whole entry, the tested form may be a part): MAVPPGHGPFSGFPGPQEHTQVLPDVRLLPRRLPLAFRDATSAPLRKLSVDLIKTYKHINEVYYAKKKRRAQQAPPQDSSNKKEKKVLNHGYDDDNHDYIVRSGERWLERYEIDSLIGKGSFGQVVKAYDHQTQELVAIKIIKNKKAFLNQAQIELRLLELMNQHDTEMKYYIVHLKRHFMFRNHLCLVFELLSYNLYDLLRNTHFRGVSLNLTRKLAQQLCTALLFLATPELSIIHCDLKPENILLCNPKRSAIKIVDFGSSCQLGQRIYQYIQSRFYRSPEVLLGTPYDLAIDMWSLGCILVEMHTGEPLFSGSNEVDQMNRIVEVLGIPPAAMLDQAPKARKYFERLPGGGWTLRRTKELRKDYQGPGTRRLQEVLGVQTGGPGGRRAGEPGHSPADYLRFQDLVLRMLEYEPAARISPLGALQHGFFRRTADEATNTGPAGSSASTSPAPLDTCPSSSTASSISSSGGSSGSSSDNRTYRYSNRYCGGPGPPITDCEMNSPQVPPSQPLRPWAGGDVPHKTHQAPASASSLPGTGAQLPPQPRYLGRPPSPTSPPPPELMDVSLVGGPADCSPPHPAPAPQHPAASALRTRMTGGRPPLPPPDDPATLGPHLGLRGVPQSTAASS
Put plainly: Radiometric protein kinase assay (33PanQinase Activity Assay), DYRK1B. As to conditions: read-out: IC50 on DYRK1B (most potent DYRK1B inhibitors). How it is done: Assays were performed by ProQinase GmbH (Engesserstr. 4, D-79108 Freiburg, Germany. www.proqinase.com). The IC50 profile of all compounds was determined using 12 protein kinases (CDK2/cyclin E, CK1ε, CLK1, 2, 3, 4, DYRK1A, 1B, 2, 3, 4, GSK3β).
The compounds were provided as […] in 100% DMSO. Prior to testing, the 1 μM stock solutions were subjected to a serial, semi-logarithmic dilution using 100% DMSO as a solvent. […] In the process, 90 μl H2O were added to each well of each compound dilution plate. To minimize potential precipitation, the H2O was added to each plate only a few minutes before the transfer of the compound solutions into the assay plates. The plate was shaken thoroughly, resulting in a compound dilution plate/10% DMSO.
For the assays (see below), 5 μL solution from each well of the compound dilution plates/10% DMSO were transferred into the assay plates. The final volume of the assay was 50 μL. All compounds were tested at 10 final assay concentrations in the range from 10 μM to 30 nM. The final DMSO concentration in the reaction cocktails was 1% in all cases.
All protein kinases provided by ProQinase were expressed in Sf9 insect cells or in E. coli as recombinant GST-fusion proteins or His-tagged proteins, either as full-length or enzymatically active fragments. All kinases were produced from human cDNAs and purified by either GSH-affinity chromatography or immobilized metal. Affinity tags were removed from a number of kinases during purification. The purity of the protein kinases was examined by SDS-PAGE/Coomassie staining, the identity was checked by mass spectroscopy.
A radiometric protein kinase assay (33PanQinase® Activity Assay) was used for measuring the kinase activity of the 12 protein kinases. All kinase assays were performed in 96-well FlashPlates™ from PerkinElmer (Boston, MA, USA) in a 50 μL reaction volume. The reaction cocktail was pipetted in four steps in the following order: • 25 μL of assay buffer (standard buffer/[γ-^33P]-ATP), • 10 μL of ATP solution (in H2O), • 5 μL of test compound (in 10% DMSO), • 10 μL of enzyme/substrate mixture.
The reaction cocktails were incubated at 30° C. for 60 minutes. The reaction was stopped with 50 μL of 2% (v/v) H3PO4, plates were aspirated and washed two times with 200 μL 0.9% (w/v) NaCl. Incorporation of ^33Pi was determined with a microplate scintillation counter (Microbeta, Wallac). The IC50 values for all compounds were calculated from the dose response curves
As a parameter for assay quality, the Z′-factor (Zhang et al., J. Biomol. Screen. 2: 67-73, 1999) for the low and high controls of each assay plate (n=8) was used. ProQinase's criterion for repetition of an assay plate is a Z′-factor below 0.4 (Iversen et al., J. Biomol. Screen. 3: 247-252, 2006).

Assay [3] concerns the target T3, CLK1 (Homo sapiens, UniProt P49759).
T3 construct: GST-fusion or His-tag (not specified per kinase); purchased ProQinase GmbH; host or cells: Sf9 insect cells or E. coli (not specified per kinase)
Put plainly: Radiometric protein kinase assay (33PanQinase Activity Assay), CLK1. To be noted: read-out: Potency Class CLK1. The gist of the method: as §1

Assay [4] addresses T4, DYRK3 (Homo sapiens, UniProt O43781).
T4 construct: GST-fusion or His-tag (not specified per kinase); purchased ProQinase GmbH; host or cells: Sf9 insect cells or E. coli (not specified per kinase)
T4 sequence (O43781 1-588): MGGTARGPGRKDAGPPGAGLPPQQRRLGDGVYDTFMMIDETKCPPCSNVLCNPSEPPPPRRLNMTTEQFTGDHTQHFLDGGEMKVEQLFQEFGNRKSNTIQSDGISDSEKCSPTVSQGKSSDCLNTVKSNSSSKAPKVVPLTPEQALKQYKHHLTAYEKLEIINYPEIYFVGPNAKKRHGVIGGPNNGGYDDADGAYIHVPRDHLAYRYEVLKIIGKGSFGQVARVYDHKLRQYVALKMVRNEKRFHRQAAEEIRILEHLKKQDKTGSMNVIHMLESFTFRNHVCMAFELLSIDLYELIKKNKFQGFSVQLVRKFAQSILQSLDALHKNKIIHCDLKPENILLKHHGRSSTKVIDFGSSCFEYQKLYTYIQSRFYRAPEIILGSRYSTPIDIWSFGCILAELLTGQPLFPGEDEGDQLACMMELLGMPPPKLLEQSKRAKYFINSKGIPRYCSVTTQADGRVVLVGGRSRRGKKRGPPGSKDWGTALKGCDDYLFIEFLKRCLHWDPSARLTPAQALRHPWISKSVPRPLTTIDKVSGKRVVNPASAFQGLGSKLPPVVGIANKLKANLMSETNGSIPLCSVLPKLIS
Briefly: Radiometric protein kinase assay (33PanQinase Activity Assay), DYRK3. To be noted: read-out: IC50 on DYRK3 (most potent DYRK3 inhibitors). The gist of the method: as §1

Assay [5] deals with T5, DYRK1A (Homo sapiens, UniProt Q13627).
T5 construct: GST-fusion or His-tag (not specified per kinase); purchased ProQinase GmbH; host or cells: Sf9 insect cells or E. coli (not specified per kinase)
Briefly: Radiometric protein kinase assay (33PanQinase Activity Assay), DYRK1A. The gist of the method:
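Recombinant human kinase, expressed in Sf9 or E. coli, in a radiometric [γ-33P]-ATP assay at 30 °C for 60 min. Compounds tested at 10 concentrations from 10 μM to 30 nM, 1% DMSO final. 33Pi incorporation measured by scintillation counting; IC50 from dose-response curves.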

The target in assay [6] is T6, CLK4 (Homo sapiens, UniProt Q9HAZ1).
T6 construct: GST-fusion or His-tag (not specified per kinase); purchased ProQinase GmbH; host or cells: Sf9 insect cells or E. coli (not specified per kinase)
T6 sequence (Q9HAZ1 whole entry, the tested form may be a part): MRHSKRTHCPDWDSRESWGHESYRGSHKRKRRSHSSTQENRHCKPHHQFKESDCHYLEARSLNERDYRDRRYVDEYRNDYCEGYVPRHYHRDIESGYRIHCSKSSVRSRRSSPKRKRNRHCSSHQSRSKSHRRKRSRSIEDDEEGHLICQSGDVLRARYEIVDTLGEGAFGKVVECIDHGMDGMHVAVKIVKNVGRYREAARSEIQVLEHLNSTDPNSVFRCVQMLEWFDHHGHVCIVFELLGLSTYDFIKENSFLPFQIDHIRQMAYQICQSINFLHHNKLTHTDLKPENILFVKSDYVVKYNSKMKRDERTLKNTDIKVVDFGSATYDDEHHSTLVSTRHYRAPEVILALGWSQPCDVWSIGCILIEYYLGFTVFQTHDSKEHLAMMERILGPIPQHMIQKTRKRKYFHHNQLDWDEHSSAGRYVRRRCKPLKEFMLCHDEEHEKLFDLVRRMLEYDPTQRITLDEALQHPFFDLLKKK
Put plainly: Radiometric protein kinase assay (33PanQinase Activity Assay), CLK4. As to conditions: read-out: IC50 on CLK4 (most potent CLK4 inhibitors). Summed up: as §1

Like-named read-outs stand apart in the source and are kept apart here. Bounds are passed on as bounds.

T3 sequence (P49759 whole entry, the tested form may be a part): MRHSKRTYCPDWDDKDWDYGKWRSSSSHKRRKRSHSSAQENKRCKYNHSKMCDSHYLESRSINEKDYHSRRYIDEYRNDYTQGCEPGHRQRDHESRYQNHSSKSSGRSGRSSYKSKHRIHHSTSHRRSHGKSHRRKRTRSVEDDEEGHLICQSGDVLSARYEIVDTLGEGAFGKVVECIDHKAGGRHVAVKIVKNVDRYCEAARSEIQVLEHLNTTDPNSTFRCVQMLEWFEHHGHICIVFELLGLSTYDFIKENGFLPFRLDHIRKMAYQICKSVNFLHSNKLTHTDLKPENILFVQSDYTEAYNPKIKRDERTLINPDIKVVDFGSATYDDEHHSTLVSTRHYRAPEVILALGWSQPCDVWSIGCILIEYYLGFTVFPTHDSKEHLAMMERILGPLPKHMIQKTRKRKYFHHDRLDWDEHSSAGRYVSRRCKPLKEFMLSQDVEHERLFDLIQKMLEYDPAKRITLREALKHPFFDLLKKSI
T1 sequence (P49760 whole entry, the tested form may be a part): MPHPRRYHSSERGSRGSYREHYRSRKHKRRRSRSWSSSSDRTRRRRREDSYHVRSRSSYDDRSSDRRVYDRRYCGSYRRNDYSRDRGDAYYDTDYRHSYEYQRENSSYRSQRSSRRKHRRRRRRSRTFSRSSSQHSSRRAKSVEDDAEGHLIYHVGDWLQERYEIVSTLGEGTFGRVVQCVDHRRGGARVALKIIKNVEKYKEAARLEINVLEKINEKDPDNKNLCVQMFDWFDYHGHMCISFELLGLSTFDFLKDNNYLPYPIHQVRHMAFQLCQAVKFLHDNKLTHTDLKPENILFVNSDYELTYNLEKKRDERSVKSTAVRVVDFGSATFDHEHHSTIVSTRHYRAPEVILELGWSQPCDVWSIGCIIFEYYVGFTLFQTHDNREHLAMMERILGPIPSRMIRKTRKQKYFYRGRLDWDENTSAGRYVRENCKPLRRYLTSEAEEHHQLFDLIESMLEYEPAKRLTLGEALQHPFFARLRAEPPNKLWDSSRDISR

On to `O=C1NC(NC23CC4CC(CC(O)(C4)C2)C3)=N/C1=C\c1ccc2ncccc2c1` [Compound 50, (4Z)-2-[(3-hydroxy-1-adamantyl)amino]-4-(6-quinolylmethylene)-1H-imidazol-5-one], for which the IC50 is at most 100 nM in assay [1]; at most 10 nM in assay [2]; 10 to 25 nM in assay [3] (IC50 class A to E); 10 to 25 nM in assay [3] (class by IC50 on CLK1, from dose-response curves); at most 250 nM in assay [4]; at most 5 nM in assay [5] (IC50 class A to E, read-out: Potency Class DYRK1A). Moreover, the IC50 in assay [5] (class by IC50 on DYRK1A, from dose-response curves, read-out: Potency Class DYRK1A) is below 5 nM; in assay [5] (read-out: IC50 on DYRK1A (most potent DYRK1A inhibitors)), at most 10 nM; in assay [6], at most 10 nM. Also, the “Selectivity Class DYRK1A vs. CLK1” value in assay [5] (ratio of IC50 on CLK1 over IC50 on DYRK1A) was “II (ratio between 2 and 10 fold)”. The “Selectivity Class DYRK1A vs. DYRK1B” value in assay [5] (ratio of IC50 on DYRK1B over IC50 on DYRK1A) is “II (ratio between 2 and 10 fold)”.

These data come from patent US20250340538A1, “IMIDAZOLONE DERIVATIVES AS INHIBITORS OF PROTEIN KINASES IN PARTICULAR DYRK1A, CLK1 AND/OR CLK4” (PERHA PHARMACEUTICALS, priority 2021, published 2025).
